Measurements: patent US9604973B2, “Anti-cancer polyketide compounds” (priority 2012, dated 2017)
“Also recorded” adds a separate entry of the source.

Columns and labels:
Assay type in all cases: cell-based, human
[1] = tested on: normal T lymphocytes from healthy donor; assay: Flow cytometry, % specific induced apoptosis in normal T lymphocytes; settings: normal T cells from healthy donors, 100 nM, 48 hours
Method: FIG. 21: FD-895 and PLAD induce apoptosis in CLL cells not ONLY independently of Tp53 but also independently of SF3B1 mutational status: Primary leukemia B cells from CLL patient with SF3B1 wild, SF3B1 mutation, 17p DEL and normal B and T lymphocytes from healthy donor were incubated with FD-895 and PLAD with 100 nM for 48 hours. After incubation, the samples were harvested and % SIA was measured by flow cytometry as described above. […] Each dots represents number of CLL patient sample and normal B or T cells.
(§1) Apoptotic and viable cells were discriminated via flow cytometry of cells stained with 3,3′ dihexyloxacarbocyanine iodide (DiOC6) (Molecular Probes, Eugene, Oreg., USA) and propidium iodine (Sigma, St Louis, Mo., USA), as described.^3 Using this method viable cells exclude PI and stain brightly positive for DiOC6.

JURKAT = assay: Flow cytometry cell viability/% SIA in leukemia cell line; settings: 0-10,000 nM, 48 hours
Method: (§2) FIG. 22: Activity of FD-895, PLAD and F-Ara-A in different human leukemia cell lines: Different leukemia cell lines including MEC1, RAJI and JURKAT were incubated with FD-895, PLAD and F-Ara-A (0, 10, 100, 1000, 10,000 nM) for 48 hours. The samples were harvested and cell viability was measured by flow cytometry using propidium iodine (PI) exclusion and mitochondrial membrane potential changes using DiOC6. This experiments was performed 2 times independently.
(§3) The leukemia cell lines, MEC1, RAJI and JURKAT were maintained in CLL B cells were maintained in RPMI 1640 medium supplemented with 10% FBS, 2 mM L-glutamine, and 100 U/mL of penicillin and 100 μg/mL of streptomycin at 37° C. in an atmosphere of 5% CO2.
as §1
(§4) We further examined the activity of FD-895, PLAD and F-Ara-A in different leukemia cell lines like MEC1 (B chronic lymphocytic leukemia cell line), RAJI (B lymphocyte cell line), JURKAT (T lymphocyte cell line) as to know whether these compounds induce apoptosis or not. We incubated cells with FD-895, PLAD and F-Ara-A with 0, 10, 100, 1000 or 10,000 nM for 48 hours and measured the % SIA by using flow cytometry.

MEC1 = assay: as above; settings: MEC1, 0-10,000 nM, 48 hours
Method: as §2, §3, §1, §4

RAJI = assay: as above; settings: 0-10,000 nM, 48 hours
Method: as §2, §3, §1, §4

GAPDH = assay: RT-PCR of spliced and unspliced mRNA (intron retention) in CLL cells, housekeeping gene; settings: for intron retention/splicing inhibition of GAPDH: 100 nM, 15 min to 4 hours; for splicing inhibition of housekeeping gene GAPDH: 4 hours, same concentrations
Method: FIG. 23: FD-895 and PLAD induced inhibition of splicing in CLL: RT-PCR for analysis of spliced and unspliced mRNAs. CLL cells treated with FD-895, PLAD (10, 100 nM), chemotherapeutic agent like bendamustine (33, 100 μM) and F-Ara-A (3, 10, 33 μM) for 4 hours. RT-PCR for DNAJB1 was performed with primers spanning two exons; products were analyzed on ethidium bromide-stained agarose gels (2%) to visualize the correct size of the unspliced mRNAs. […] The exon structure of DNAJB1 gene is indicated. G, human genomic DNA was used as a control; U, unspliced mRNA; S, spliced mRNA.
CLL cells were treated with 10 and 100 nM of FD-895 and PLAD, 33 and 100 μM of bendamustine and 3, 10, and 33 μM of F-Ara-A for 4 h. Normal B and CLL cells were treated with 100 nM of FD-895 and PLAD and 10 μM of F-Ara-A for 15 minutes, 30 minutes, 1, 2 and 4 h. Total RNA was extracted using mirVana™ miRNA isolation kit (Ambion Life Technology, USA). After DNase treatment, 200 ng total RNA was reverse-transcribed using a SuperScript™ III first-strand synthesis system (Invitrogen). PCR was performed on 10 ng of the obtained cDNA (or human genomic DNA as a control) in 25 μl of reaction mixture containing Plantinum® PCR SuperMix High-fidelity (Invitrogen Life Technology, USA), and 0.1 μM of each primer of the appropriate pair.
PCR conditions were 94° C. for 3 min; 35 cycles of 94° C. for 30 s, 60° C. for 30 s, and 72° C. for 1 min; followed by 72° C. for 5 min. PCR products were separated on a 2% agarose gel and stained with ethidium bromide.

DNAJB1 [2] = assay: Quantitative RT-PCR of unspliced mRNA in CLL cells; settings: for unspliced mRNA of DNAJB1 over time: CLL cells, FD-895, PLAD 100 nM, F-Ara-A 10 μM, 15 min, 1 and 4 hours; for unspliced mRNA of DNAJB1: CLL, 10 nM, 4 hours
Method: FIG. 24: Time-dependent increase of unspliced mRNA by FD-895 and PLAD in CLL: CLL cells were treated with 100 nM of FD-895 and PLAD and 10 μM of F-Ara-A for 15 min, 1 and 4 hours. Quantitative RT-PCR using primers specific for each intron quantified unspliced mRNA for DNAJB1. GAPDH was used for normalization. […] Error bars indicate S.D.
(§5) Quantitative RT-PCR using primers specific for each intron quantified unspliced mRNA for DNAJB1 (FIG. 25A) and RIOK3 (FIG. 25B). GAPDH was used for normalization. […] Error bars indicate S.D.
(§6) CLL cells were treated with 100 nM of FD-895 and PLAD and 10 μM of F-Ara-A for 15 minutes, 1 and 4 h. Normal B and CLL cells were treated with 10, 100, and 1000 nM of FD-895 and PLAD and 10 μM of F-Ara-A for 4 h.
(§7) Extraction of total RNA and cDNA synthesis were performed as described earlier. Unspliced mRNA was quantified using a 7900HT fast Real Time PCR System (Applied Biosystems). The amounts of unspliced mRNA of DNAJB1, and RIOK3 were determined by SYBR green (Power SYBR Green PCR Master Mix, Applied Biosystems) real-time quantitative RT-PCR using specific primers designed for the intron of each gene (see additional information section at the end).
(§8) PCR using 0.2 μM of each primer was performed on 20 ng of the obtained cDNA. PCR conditions were 50° C. for 2 min; 95° C. for 10 min; 35 cycles of 94° C. for 20 s, 55° C. for 20 s, followed by 72° C. for 30 s. The mRNA levels were calculated using 2^−ΔΔCT method.^4 GAPDH was used as a control for normalization.

DNAJB1 [3] = assay: Quantitative RT-PCR of unspliced mRNA in normal B cells; settings: 4 hours
Method: as §5
(§9) Normal B cells were purified from buffy coats of healthy volunteers, obtained from San Diego blood bank. Positive isolation with Dynabeads® CD19 pan B and DETACHaBEAD CD19 (Invitrogen Life Technologies, USA) were used to achieve more than 95% purity by flow cytometry analysis.
as §6, §7, §8

RIOK3 = assay: as above; settings: 4 hours
Method: as §5, §9, §6, §7, §8

## CCC(OC)C(C)C1OC1C(O)C(C)/C=C/C=C(\C)C1OC(=O)CC(O)CCC(C)(O)C(OC(C)=O)/C=C/C1C (centres unmarked) [FD-895]
[1]
  apoptosis (% SIA): did not induce significant cell death; also recorded: did not show significant apoptosis
JURKAT
  cell death (% SIA): high significant cell death
MEC1
  cell death (% SIA): did not show significant apoptosis
RAJI
  cell death (% SIA): high significant cell death
GAPDH
  intron retention/splicing inhibition of GAPDH: no intron retention/splicing inhibition
  splicing inhibition of housekeeping gene GAPDH: Neither FD-895, PLAD nor chemotherapy agents showed splicing inhibition
DNAJB1 [2]
  unspliced mRNA of DNAJB1 over time: gradual increase in unspliced mRNA
  unspliced mRNA of DNAJB1: clear increase in unspliced mRNA
DNAJB1 [3]
  unspliced mRNA of DNAJB1: did not show significant increase in unspliced mRNA
RIOK3
  unspliced mRNA of RIOK3: did not show significant increase in unspliced mRNA

## Pladienolide B
[1]
  apoptosis (% SIA): did not induce significant cell death; also recorded: did not show significant apoptosis
JURKAT
  cell death (% SIA): high significant cell death
MEC1
  cell death (% SIA): did not show significant apoptosis
RAJI
  cell death (% SIA): high significant cell death
GAPDH
  intron retention/splicing inhibition of GAPDH: no intron retention/splicing inhibition
  splicing inhibition of housekeeping gene GAPDH: Neither FD-895, PLAD nor chemotherapy agents showed splicing inhibition
DNAJB1 [2]
  unspliced mRNA of DNAJB1 over time: gradual increase in unspliced mRNA
  unspliced mRNA of DNAJB1: clear increase in unspliced mRNA
DNAJB1 [3]
  unspliced mRNA of DNAJB1: did not show significant increase in unspliced mRNA
RIOK3
  unspliced mRNA of RIOK3: did not show significant increase in unspliced mRNA
